Experimental data: US20090270413A1, “DI-T-BUTYLPHENYL PIPERAZINES AS CALCIUM CHANNEL BLOCKERS” (priority 2008, published 2009)

Target: T1, Human Cav2.2 channels (Homo sapiens, UniProt Q00975)
T1 construct: expressed in transfected cells
Test: Block of Cav2.2 (N-type) channels expressed in HEK293 cells
Assay type: cell-based
Conditions: HEK293; for inhibition at 10 µM: read-out: Cav 2.2 % Inh @ 10 μM; for inhibition at 30 µM: read-out: Cav 2.2 % Inh @ 30 μM
Text: Human Cav2.2 channels were stably expressed in HEK293 cells along with alpha2-delta and beta subunits of voltage-gated calcium channels. An inwardly rectifying potassium channel (Kir2.3) was also expressed in these cells to allow more precise control of the cell membrane potential by extracellular potassium concentration. At low bath potassium concentration, the membrane potential is relatively negative, and is depolarized as the bath potassium concentration is raised. In this way, the bath potassium concentration can be used to regulate the voltage-dependent conformations of the channels. Compounds are incubated with cells in the presence of low (4 mM) potassium or elevated (12, 25 or 30 mM) potassium to determine the affinity for compound block of resting (closed) channels at 4 mM potassium or affinity for block of open and inactivated channels at 12, 25 or 30 mM potassium. After the incubation period, Cav2.2 channel opening is triggered by addition of higher concentration of potassium (70 mM final concentration) to further depolarize the cell. The degree of state-dependent block can be estimated from the inhibitory potency of compounds after incubation in different potassium concentrations.
Calcium influx through Cav2.2 channels is determined using a calcium sensitive fluorescent dye in combination with a fluorescent plate reader. Fluorescent changes were measured with either a VIPR (Aurora Instruments) or FLIPR (Molecular Devices) plate reader.
Protocol • 1. Seed cells in Poly-D-Lysine Coated 96 or 384-well plate and keep in a 37° C.-10% CO2 incubator overnight • 2. Remove media, wash cells with 0.2 mL (96-well plate) or 0.05 mL (384-well plate) Dulbecco's Phosphate Buffered Saline (D-PBS) with calcium & magnesium (Invitrogen; 14040) • 3. Add 0.1 mL (96-well plate) or 0.05 mL (384-well plate) of 4 μM fluor-4 (Molecular Probes; F-14202) and 0.02% Pluronic acid (Molecular Probes; P-3000) prepared in D-PBS with calcium & magnesium (Invitrogen; 14040) supplemented with 10 mM Glucose & 10 mM Hepes/NaOH; pH 7.4 • 4. Incubate in the dark at 25° C. for 60-70 min • 5. Remove dye, wash cells with 0.1 mL (96-well plate) or 0.06 mL (384-well plate) of 4, 12, 25, or 30 mM Potassium Pre-polarization Buffer (PPB) • 6. Add 0.1 mL (96-well plate) or 0.03 mL (384-well plate) of 4, 12, 25, 30 mM PPB with or without test compound • 7. Incubate in the dark at 25° C. for 30 min • 8. Read cell plate on VIPR instrument, Excitation=480 nm, Emission=535 nm • 9. With VIPR continuously reading, add 0.1 mL (96-well plate) or 0.03 mL (384-well plate) of Depolarization Buffer (DB), which is 2× the final assay concentration, to the cell plate.
Block of N-type calcium channels is evaluated utilizing the IonWorks HT 384 well automated patch clamp electrophysiology device. This instrument allows synchronous recording from 384 well (48 at a time). A single whole cell recording is made in each well. Whole cell recording is established by perfusion of the internal compartment with amphotericin B.
The voltage protocol is designed to detect use-dependent block. A 2 Hz train of depolarizations (twenty 25 ms steps to +20 mV). The experimental sequence consists of a control train (pre-compound), incubation of cells with compound for 5 minutes, followed by a second train (post-compound). Use dependent block by compounds is estimated by comparing fractional block of the first pulse in the train to block of the 20th pulse.
Parallel patch clamp electrophysiology is performed using IonWorks HT (Molecular Devices Corp) essentially as described by Kiss and colleagues (Kiss et al. 2003; Assay and Drug Development Technologies, 1:127-135). Briefly, a stable HEK 293 cell line (referred to as CBK) expressing the N-type calcium channel subunits (α1B, α2δ, β3a) and an inwardly rectifying potassium channel (Kir2.3) is used to record barium current through the N-type calcium channel. Cells are grown in T75 culture plates to 60-90% confluence before use. […]

T1 sequence (Q00975 whole entry): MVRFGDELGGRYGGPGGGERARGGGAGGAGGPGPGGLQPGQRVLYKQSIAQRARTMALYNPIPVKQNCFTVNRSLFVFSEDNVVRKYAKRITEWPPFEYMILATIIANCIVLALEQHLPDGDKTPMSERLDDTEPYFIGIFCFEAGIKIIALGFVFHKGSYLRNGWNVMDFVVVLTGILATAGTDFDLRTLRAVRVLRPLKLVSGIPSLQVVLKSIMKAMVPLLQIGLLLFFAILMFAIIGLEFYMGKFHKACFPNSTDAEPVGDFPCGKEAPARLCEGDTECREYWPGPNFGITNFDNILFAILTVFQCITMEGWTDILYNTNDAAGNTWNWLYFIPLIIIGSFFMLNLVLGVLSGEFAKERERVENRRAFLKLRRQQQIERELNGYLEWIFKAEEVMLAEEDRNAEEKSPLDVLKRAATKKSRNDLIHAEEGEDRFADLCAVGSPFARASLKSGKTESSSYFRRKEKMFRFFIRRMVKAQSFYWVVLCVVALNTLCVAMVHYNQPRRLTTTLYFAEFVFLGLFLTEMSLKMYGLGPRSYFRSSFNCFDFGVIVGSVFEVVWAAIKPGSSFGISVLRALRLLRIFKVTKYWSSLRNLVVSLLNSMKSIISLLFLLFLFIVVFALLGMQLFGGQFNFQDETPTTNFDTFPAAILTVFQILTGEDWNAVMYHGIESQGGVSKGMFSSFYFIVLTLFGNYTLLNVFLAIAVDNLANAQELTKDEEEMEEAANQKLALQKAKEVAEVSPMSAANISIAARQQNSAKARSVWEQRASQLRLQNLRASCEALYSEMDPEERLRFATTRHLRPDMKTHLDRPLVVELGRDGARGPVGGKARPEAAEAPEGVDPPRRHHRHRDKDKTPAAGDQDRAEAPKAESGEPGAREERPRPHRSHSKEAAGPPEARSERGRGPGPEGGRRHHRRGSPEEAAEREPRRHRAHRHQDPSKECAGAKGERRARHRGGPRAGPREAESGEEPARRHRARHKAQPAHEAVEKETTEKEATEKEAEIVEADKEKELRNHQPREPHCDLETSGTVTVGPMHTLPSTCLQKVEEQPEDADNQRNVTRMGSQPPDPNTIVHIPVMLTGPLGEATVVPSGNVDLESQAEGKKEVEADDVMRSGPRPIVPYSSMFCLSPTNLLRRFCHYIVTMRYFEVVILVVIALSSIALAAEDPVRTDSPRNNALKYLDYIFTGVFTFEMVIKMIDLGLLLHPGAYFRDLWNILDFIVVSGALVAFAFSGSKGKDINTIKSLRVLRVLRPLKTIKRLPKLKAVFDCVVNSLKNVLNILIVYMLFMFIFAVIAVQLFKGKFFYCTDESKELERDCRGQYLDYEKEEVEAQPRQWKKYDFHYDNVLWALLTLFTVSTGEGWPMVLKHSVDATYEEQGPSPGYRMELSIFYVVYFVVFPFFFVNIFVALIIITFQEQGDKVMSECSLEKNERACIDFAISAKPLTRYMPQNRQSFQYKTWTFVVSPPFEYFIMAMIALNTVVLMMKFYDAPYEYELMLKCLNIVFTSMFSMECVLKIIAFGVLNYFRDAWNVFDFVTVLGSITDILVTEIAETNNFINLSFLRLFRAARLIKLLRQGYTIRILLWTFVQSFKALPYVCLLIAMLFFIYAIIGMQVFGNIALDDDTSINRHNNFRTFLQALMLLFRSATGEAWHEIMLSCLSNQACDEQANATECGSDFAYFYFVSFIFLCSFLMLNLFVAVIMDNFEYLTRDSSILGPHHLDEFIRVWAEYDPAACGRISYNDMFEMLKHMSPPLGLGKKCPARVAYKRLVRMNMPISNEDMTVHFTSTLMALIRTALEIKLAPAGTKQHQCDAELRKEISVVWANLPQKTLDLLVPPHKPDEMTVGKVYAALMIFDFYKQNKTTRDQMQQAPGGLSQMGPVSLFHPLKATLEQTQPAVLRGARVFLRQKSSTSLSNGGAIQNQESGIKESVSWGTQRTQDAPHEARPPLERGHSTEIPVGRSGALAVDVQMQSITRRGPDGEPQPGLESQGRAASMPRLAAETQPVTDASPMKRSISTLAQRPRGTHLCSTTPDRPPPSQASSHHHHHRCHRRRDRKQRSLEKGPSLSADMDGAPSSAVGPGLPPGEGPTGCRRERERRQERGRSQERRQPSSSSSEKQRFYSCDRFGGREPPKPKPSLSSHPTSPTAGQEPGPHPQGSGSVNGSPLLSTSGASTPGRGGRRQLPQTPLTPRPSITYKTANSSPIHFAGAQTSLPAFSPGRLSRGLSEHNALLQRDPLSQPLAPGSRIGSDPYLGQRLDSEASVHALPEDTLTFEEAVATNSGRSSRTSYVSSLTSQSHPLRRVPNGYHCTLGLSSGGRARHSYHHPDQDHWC
T1 sequence (P54289 25-956 partner limits assumed): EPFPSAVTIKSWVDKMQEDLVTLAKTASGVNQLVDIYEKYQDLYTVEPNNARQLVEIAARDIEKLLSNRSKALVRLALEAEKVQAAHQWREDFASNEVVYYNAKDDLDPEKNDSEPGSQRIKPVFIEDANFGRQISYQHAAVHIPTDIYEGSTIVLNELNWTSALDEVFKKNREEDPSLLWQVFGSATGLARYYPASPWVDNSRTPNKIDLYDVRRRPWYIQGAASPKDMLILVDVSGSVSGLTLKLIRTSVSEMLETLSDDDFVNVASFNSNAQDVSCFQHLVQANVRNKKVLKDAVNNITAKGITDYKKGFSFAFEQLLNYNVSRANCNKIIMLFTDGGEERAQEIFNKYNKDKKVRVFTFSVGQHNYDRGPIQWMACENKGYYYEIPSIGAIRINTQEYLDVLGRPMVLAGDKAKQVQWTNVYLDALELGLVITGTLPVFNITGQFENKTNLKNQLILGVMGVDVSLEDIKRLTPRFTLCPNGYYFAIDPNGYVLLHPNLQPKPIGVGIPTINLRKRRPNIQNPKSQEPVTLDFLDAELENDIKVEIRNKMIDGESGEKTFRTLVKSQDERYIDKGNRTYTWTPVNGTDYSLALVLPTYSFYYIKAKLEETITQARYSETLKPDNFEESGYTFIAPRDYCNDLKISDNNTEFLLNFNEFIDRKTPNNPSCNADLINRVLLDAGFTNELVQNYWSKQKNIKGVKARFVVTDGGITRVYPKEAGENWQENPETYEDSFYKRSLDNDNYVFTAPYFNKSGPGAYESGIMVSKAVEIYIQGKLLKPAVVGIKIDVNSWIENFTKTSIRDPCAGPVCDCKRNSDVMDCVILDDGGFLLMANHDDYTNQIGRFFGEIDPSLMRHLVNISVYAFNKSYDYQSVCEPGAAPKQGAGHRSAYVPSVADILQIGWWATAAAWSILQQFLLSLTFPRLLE
T1 sequence (P54289 957-1103 partner limits assumed): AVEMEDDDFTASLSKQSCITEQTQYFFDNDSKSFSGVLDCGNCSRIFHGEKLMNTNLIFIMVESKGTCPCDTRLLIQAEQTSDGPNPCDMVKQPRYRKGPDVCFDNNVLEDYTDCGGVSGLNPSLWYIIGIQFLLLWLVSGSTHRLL
T1 sequence (P54284 whole entry partner): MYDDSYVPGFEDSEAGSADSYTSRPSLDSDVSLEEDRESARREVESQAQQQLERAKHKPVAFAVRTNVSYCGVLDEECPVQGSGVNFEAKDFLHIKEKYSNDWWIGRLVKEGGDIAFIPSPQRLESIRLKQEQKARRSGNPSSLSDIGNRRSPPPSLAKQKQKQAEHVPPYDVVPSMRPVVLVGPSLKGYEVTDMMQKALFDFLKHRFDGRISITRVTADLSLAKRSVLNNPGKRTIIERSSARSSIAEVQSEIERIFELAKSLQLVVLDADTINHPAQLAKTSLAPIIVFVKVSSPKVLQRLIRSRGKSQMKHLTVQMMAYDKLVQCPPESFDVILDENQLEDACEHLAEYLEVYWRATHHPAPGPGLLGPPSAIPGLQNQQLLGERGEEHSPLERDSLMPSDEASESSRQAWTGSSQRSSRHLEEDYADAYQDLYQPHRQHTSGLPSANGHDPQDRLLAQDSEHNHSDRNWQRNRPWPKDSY

Row | SMILES | inhibition at 10 µM | inhibition at 30 µM
1 | Cc1cc(C(=O)N2CCN(c3cc(C(C)(C)C)cc(C(C)(C)C)c3)CC2)c(C(F)(F)F)o1 [Compound 1, (4-(3,5-di-tert-butylphenyl)piperazin-1-yl)(5-methyl-2-(trifluoromethyl)furan-3-yl)methanone] | 91% | 101%
2 | CC(C)(C)c1cc(N2CCN(C(=O)c3cc(F)cc(C(F)(F)F)c3)CC2)cc(C(C)(C)C)c1 [Compound 12, (4-(3,5-di-tert-butylphenyl)piperazin-1-yl)(3-fluoro-5-(trifluoromethyl)phenyl)methanone] | 84% | 98%
3 | CC(C)(C)c1cc(N2CCN(C(=O)c3csc(-c4cccc(C(F)(F)F)c4)n3)CC2)cc(C(C)(C)C)c1 [Compound 18, (4-(3,5-di-tert-butylphenyl)piperazin-1-yl)(2-(3-(trifluoromethyl)phenyl)thiazol-4-yl)methanone] | 59% | 83%
4 | CC(C)(C)c1cc(N2CCN(C(=O)c3cc4cccnc4nc3C(F)(F)F)CC2)cc(C(C)(C)C)c1 [Compound 19] | 49% | 69%
5 | CC(C)c1cc(C(=O)N2CCN(c3cc(C(C)(C)C)cc(C(C)(C)C)c3)CC2)on1 [Compound 24, (4-(3,5-di-tert-butylphenyl)piperazin-1-yl)(3-isopropylisoxazol-5-yl)methanone] | 88% | 96%
6 | CC(C)c1cc(C(=O)N2CCN(c3cc(C(C)(C)C)cc(C(C)(C)C)c3)CC2)c2cnn(C(C)C)c2n1 [Compound 27, (4-(3,5-di-tert-butylphenyl)piperazin-1-yl)(1,6-diisopropyl-1H-pyrazolo[3,4-b]pyridin-4-yl)methanone] | 59% | 83%
7 | CC(C)(C)c1cc(N2CCN(C(=O)c3ccc(C(O)(C(F)(F)F)C(F)(F)F)cc3)CC2)cc(C(C)(C)C)c1 [Compound 36, (4-(3,5-di-tert-butylphenyl)piperazin-1-yl)(4-(1,1,1,3,3,3-hexafluoro-2-hydroxypropan-2-yl)phenyl)methanone] | 32% | 73%
8 | CC(C)(C)c1cc(N2CCN(C(=O)c3cc(C4CC4)nc4ccccc34)CC2)cc(C(C)(C)C)c1 [Compound 40, (2-cyclopropylquinolin-4-yl)(4-(3,5-di-tert-butylphenyl)piperazin-1-yl)methanone] | 86% | 91%
9 | CC(C)(C)c1cc(N2CCN(C(=O)c3cc(C4CC4)n[nH]3)CC2)cc(C(C)(C)C)c1 [Compound 42, (3-cyclopropyl-1H-pyrazol-5-yl)(4-(3,5-di-tert-butylphenyl)piperazin-1-yl)methanone] | 54% | 98%
10 | CC1CCc2sc(C(=O)N3CCN(c4cc(C(C)(C)C)cc(C(C)(C)C)c4)CC3)cc2C1 (stereo not drawn) [Compound 43, (4-(3,5-di-tert-butylphenyl)piperazin-1-yl)(5-methyl-4,5,6,7-tetrahydrobenzo[b]thiophen-2-yl)methanone] | 46% | 57%

More lines, now with the values ahead:

Row | inhibition at 10 µM | inhibition at 30 µM | SMILES
11 | 90% | 94% | CC(C)(C)c1cc(N2CCN(C(=O)c3ccncc3)CC2)cc(C(C)(C)C)c1 [Compound 2, (4-(3,5-di-tert-butylphenyl)piperazin-1-yl)(pyridin-4-yl)methanone]
12 | 85% | 96% | CC(C)(C)c1cc(N2CCN(C(=O)c3ccc(S(C)(=O)=O)cc3Cl)CC2)cc(C(C)(C)C)c1 [Compound 5, (2-chloro-4-(methylsulfonyl)phenyl)(4-(3,5-di-tert-butylphenyl)piperazin-1-yl)methanone]
13 | 86% | 95% | CC(C)(C)c1cc(N2CCN(C(=O)c3scc(S(C)(=O)=O)c3Cl)CC2)cc(C(C)(C)C)c1 [Compound 6, (3-chloro-4-(methylsulfonyl)thiophen-2-yl)(4-(3,5-di-tert-butylphenyl)piperazin-1-yl)methanone]
14 | 91% | 101% | COc1ccc(Cl)cc1C(=O)N1CCN(c2cc(C(C)(C)C)cc(C(C)(C)C)c2)CC1 [Compound 9, (5-chloro-2-methoxyphenyl)(4-(3,5-di-tert-butylphenyl)piperazin-1-yl)methanone]
15 | 91% | 97% | Cn1nc(C(C)(C)C)cc1C(=O)N1CCN(c2cc(C(C)(C)C)cc(C(C)(C)C)c2)CC1 [Compound 11, (3-tert-butyl-1-methyl-1H-pyrazol-5-yl)(4-(3,5-di-tert-butylphenyl)piperazin-1-yl)methanone]
16 | 96% | 93% | Cc1ccc(C(=O)N2CCN(c3cc(C(C)(C)C)cc(C(C)(C)C)c3)CC2)c(C)c1 [Compound 15, (4-(3,5-di-tert-butylphenyl)piperazin-1-yl)(2,4-dimethylphenyl)methanone]
17 | 80% | 97% | CC(C)c1ccc(C(=O)N2CCN(c3cc(C(C)(C)C)cc(C(C)(C)C)c3)CC2)cc1 [Compound 17, (4-(3,5-di-tert-butylphenyl)piperazin-1-yl)(4-isopropylphenyl)methanone]
18 | 53% | 78% | CC(C)(C)c1cc(N2CCN(C(=O)c3ccc(S(=O)(=O)C(C)(C)C)s3)CC2)cc(C(C)(C)C)c1 [Compound 21, (5-(tert-butylsulfonyl)thiophen-2-yl)(4-(3,5-di-tert-butylphenyl)piperazin-1-yl)methanone]
19 | 89% | 99% | CC(C)(C)c1cc(N2CCN(C(=O)c3cc(S(C)(=O)=O)ccc3Cl)CC2)cc(C(C)(C)C)c1 [Compound 25, (2-chloro-5-(methylsulfonyl)phenyl)(4-(3,5-di-tert-butylphenyl)piperazin-1-yl)methanone]
20 | 87% | 98% | Cc1ccc(S(C)(=O)=O)cc1C(=O)N1CCN(c2cc(C(C)(C)C)cc(C(C)(C)C)c2)CC1 [Compound 26, (4-(3,5-di-tert-butylphenyl)piperazin-1-yl)(2-methyl-5-(methylsulfonyl)phenyl)methanone]
21 | 52% | 59% | CC(C)(C)c1cc(N2CCN(C(=O)c3ccc(C(C)(C)C)s3)CC2)cc(C(C)(C)C)c1 [Compound 34, (5-tert-butylthiophen-2-yl)(4-(3,5-di-tert-butylphenyl)piperazin-1-yl)methanone]
22 | 77% | 95% | Cc1oc(C(C)(C)C)cc1C(=O)N1CCN(c2cc(C(C)(C)C)cc(C(C)(C)C)c2)CC1 [Compound 35, (5-tert-butyl-2-methylfuran-3-yl)(4-(3,5-di-tert-butylphenyl)piperazin-1-yl)methanone]
23 | 15% | 41% | CC(C)(C)c1cc(N2CCN(C(=O)c3cc4cc(C(F)(F)F)ccc4s3)CC2)cc(C(C)(C)C)c1 [Compound 39, (4-(3,5-di-tert-butylphenyl)piperazin-1-yl)(5-(trifluoromethyl)benzo[b]thiophen-2-yl)methanone]
24 | 65% | 81% | CCCc1cc(C(=O)N2CCN(c3cc(C(C)(C)C)cc(C(C)(C)C)c3)CC2)sc1C [Compound 44, (4-(3,5-di-tert-butylphenyl)piperazin-1-yl)(5-methyl-4-propylthiophen-2-yl)methanone]
